Assay results as given in US8257714B2, “Compositions and methods for immunotherapy of cancer and infectious diseases” (priority 2003, dated 2012).
Ends that are not written are not given here.

Columns and labels:
Mouse sarcoma 180 cells = assay: NK cell-mediated cytotoxicity (NK-CMC) assay, LGL/S180 co-culture; assay type: cell-based; conditions: for NK-CMC Activity: wide range of concentrations, presence and absence of IL-2 (125 U/ml)
Procedure: In one embodiment, a NK cell assay is used to assess ARP-induced cytotoxic activity of NK-like cells (see section 12.2). Briefly, by way of example but not limitation, a NK cell assay can be carried out as follows: large granular lymphocytes (LGLs) are co-cultured with tumor cells at various ratios (effector to target ratio) for four days at 37° C., 5% CO2. […] The culture is terminated at the end of day 4 and vitally stained using a MTT cell viability quantification assay (see Mossman, T. J. Immunol. Methods 65: 55 (1983); and Sigma Chemical MTT (M5655) product application note). Culture media is aspirated and the remaining cells are washed and replaced with DMEM/F12 plus FCS, containing MTT. The cells are further incubated for 4-5 hours at 37° C. Absorbance is measured with the aid of a plate reader. Decreased absorbance indicated a decrease in the number of viable cells per well (i.e., cytotoxicity). Absorbance is measured again after the MTT is solubilized by replacement of the medium with 2-propanol containing HCl, which gives a uniform color throughout the well. NK-inducing activity is calculated relative to negative (PBS/BSA) and positive (internal standard) controls.
Spleens (10-15 per experiment) were aseptically removed from male Balb/C mice 6-10 weeks of age. Splenocytes were “squeezed” out of spleens using 2 sterile glass microscope slides. Cells were collected in approximately 10 ml of DMEM/F 12 containing 10% fetal calf serum (FCS) and gentamicin (50 μg/ml). Single cell suspensions were generated by passing collected cells through a 70 μm nylon mesh screen. After washing the cell pellet once with PBS (centrifuged at 675×g for 5 min), red blood cells were lysed by brief hypotonic shock (i.e. exposure to sterile distilled, deionized water, followed immediately with appropriate volumes of 10×PBS to return to isotonicity). Remaining cells were centrifuged and resuspended in DMEM/F12+10% FCS and transferred to 75 cm^2 flasks each containing 25 mls DMEM/F12+10% FCS (cells from 5 spleens per flask). The cells were incubated for 60 min. at 37° C. to selectively remove readily adherent cells (mainly fibroblasts and macrophages). After the incubation, the flasks were gently shaken and the non-adherent cells were removed, pelleted by centrifugation, and resuspended in DMEM/F12 (no supplements) (1.0 mL/10^8 cells). A 1.0 mL volume of these cell suspensions were carefully layered onto a 70%/60%/40% (2 mL/4 mL/4 mL) Percoll™ gradients in 15 ml centrifuge tubes and centrifuged for 30 min at 675×G. The cells which sediment at the 40/60 interface represent primarily large granular lymphocytes (LGLs), enriched with NK cells. These cells were carefully removed with a pasteur pipet, centrifuged, washed once with PBS and resuspended in approximately 5 mL DMEM/F12 supplemented with gentamicin (50 μg/mL) and 10% fetal calf serum. Cell counts and appropriate dilutions of LGL cells were made with these cells, as described below. For convenience this LGL cell preparation is interchangeably referred to as NK cells.
Mouse sarcoma 180 cells were seeded into 96 well plates at a density of 5×10^3 cells per well in 100 μl DMEM/F12, supplemented with 10% FCS and gentamicin (50 μg/mL). […] NK cells were added in 100 μL of supplemented DMEM/F12 at designated densities: 0 NK cells/well; 5×10^4 NK cells/well (1:10 target/effector ratio); 1.25×10^5 NK cells/well (1:25 target/effector ratio); 2.5×10^5 NK cells/well (1:50 target/effector ratio); and, 5×10^5 NK cells/well (1:100 target/effector ratio). (Note: routinely, only the 1:50 and 1:100 ratios were used for screening purposes. IL2 was added as a media supplement with final concentration of 125 U/mL.). Co-cultures were incubated for 4 days at 37° C., 5% CO2, and terminated and vitally stained using a MTT cell viability quantification assay (see Mossman, T. J. Immunol. Methods 65:55 (1983); and Sigma Chemical MTT (M5655) product application note). […]

[1] = tested on: freshly isolated dendritic cells (CD11c+ splenocytes); assay: Dendritic cell (DC) assay: IL12 release from freshly isolated dendritic cells; assay type: cell-based, BALB/c mice; conditions: for DC mIL12 Release: tested for synergism and inhibition
Source text: In a preferred embodiment, dendritic cell (DC) assay is used to follow interleukin-12 (IL-12) release from freshly isolated dendritic cells as an index of DC activation (see section 12.3). […] Briefly, by way of example but not limitation, a DC assay can be carried out as follows: freshly isolated dendritic cells (CD11c^+ splenocytes, e.g., isolated from the spleens of BALB/c mice within ten hours of assaying the activity) are suspended at a density of 0.5×10^6 cells per mL in cytokine supplemented culture media (GM-CSF, 1.0 ng/ml; IL-4, 1.0 ng/ml; IFNg, 3.0 ng/ml; anti mouse CD40, 0.5 mg/ml). […] Mouse IL-12 release from the dendritic cells (CD11c^+ splenocytes) is then measured using ELISA.
To follow the activity in semi-purified preparations of BEX, an assay which follows IL12 release from freshly isolated dendritic cells (DCs) as an index of DC activation was developed. This activity is highly correlated with both NK-CMC in vitro and anti-tumor activity in vivo.
DCs were isolated from the spleens of male BALB/c mice 8-12 weeks of age (Harlan Bioproducts for Science, Indianapolis, Ind.), using the magnetic assisted cell separation (MACS) system purchased from Miltenyi Biotech. In summary: Spleens were aseptically removed from mice and placed into a petri dish containing 5 mL holding media (DMEM/F12 supplemented with 10% FCS and antibiotics). Each spleen was then injected with ˜0.5 mls collagenase D solution (1 mg/mL in 10 mM Hepes-NaOH, pH 7.4, 150 mM NaCl, 5 mM MgCl2, 1.8 mM CaCl2), placed into 5-10 mL collagenase D, cut into 5-6 pieces and incubated at 37° C. for 45-60 min. Collagenase-digested spleens were then processed with glass slides and passed through a 70 μm nylon mesh cell strainer. After the strainer was flushed with 40 mL culture media, cells were centrifuged (8 min @ 200×G), suspended in 1 mL PBS and subjected to red blood cell lysis by incubating the cell suspension for 5 min at room temperature in 10 mL lysis buffer (155 mM NH4Cl, 10 mM KHCO3, 0.1 mM EDTA), followed by dilution in PBS to 50 mL and centrifugation (8 min @ 200×g). The splenocytes were then suspended in 10 mL MACS buffer (PBS pH 7.2, supplemented with 2 mM EDTA and 0.5% BSA), passed through a 40 μm nylon mesh cell strainer which was flushed with 40 mL MACS buffer. A preliminary cell count was taken at this time, prior to centrifugation (8 min @ 200×G). The splenocytes were suspended at a density of 10^8 cells per 400 μL MACS buffer. Paramagnetic MicroBeads coated with anti-CD11c^+ antibody were mixed with the splenocyte suspension (100 μL per 10^8 cells), incubated at +4° C. for 15 min, washed, suspended in 1.0 mL MACS buffer and passed through a MS+ separation column placed within a strong magnetic field. CD11c^+ cells were retained in the column whereas CD11c^− cells were washed off the column as the flow-through cell fraction. CD11c^+ cells were then collected by removing the column out of the magnetic field and flushing the column twice with 1 mL of MACS buffer. CD11c^+ cells were washed once with culture media and suspended at a density of 0.5×10^6 cells per mL in cytokine supplemented culture media {DMEM/F12 supplemented with 10% FCS and gentamicin containing mouse GM-CSF (1 ng/mL), mouse IL-4 (1 ng/mL), mouse IFNγ (3 ng/mL) and anti mouse CD40 (0.5 mg/mL)}.
Mouse IL12 release from CD11c^+ splenocytes was measured using ELISA. Briefly, CD11c+ cell culture supernatants were sampled following an overnight incubation (usually 15-18 hrs). Media samples ([…]) were added to ELISA plates coated with anti mouse IL12 (p70) capture antibody (R&D #MAB419; 250 ng in 100 μL per well) and incubated either at 37° C. or room temperature for 2 hrs. The ELISA plates were washed extensively with wash buffer after which 100 μL per well of detection antibody/detection reagent (biotinylated anti-mouse IL12; R&D #BAF419 at 50 ng/mL and streptavidin-HRP) was added. […]

Row | Molecule | NK-CMC Activity (Mouse sarcoma 180 cells) | DC mIL12 Release [1] | other results
1 | IL-15: interleukin | − |  | 
2 | Magainin I | − |  | 
3 | Cecropin A: defensin / anti-microbial peptide (KWKLFKKIEKVGQNIRDGIIKAGPAVAVVGQATQIAK; UniProt P01507 27-63, looked up) | − |  | 
4 | Cecropin P1 | − |  | 
5 | N[C@@H](CCC(=O)N[C@@H](CS)C(=O)NCC(=O)O)C(=O)O [reduced glutathione] |  |  | effect on responses in the DC assay ([1]; excess added to the assay system): lowered the responses
6 | TNF α |  | − | 
7 | FGFbasic: growth factor | − | − | 
8 | Cecropin B: defensin / anti-microbial peptide (KWKVFKKIEKMGRNIRNGIVKAGPAIAVLGEAKAL; ends and bridges not checked; UniProt P01508 27-61, looked up) | − |  | 
9 | TGF α: growth factor | − |  | 
10 | IL-6: interleukin | − | − | 
11 | IL-5: interleukin | − | − | 
12 | IFN α | − |  | 
13 | TGF β | − | − | 
14 | JE/MCP-1: chemokine | − |  | 
15 | Magainin II | − |  | 
16 | truncated molecule lacking GEADTQAWDTSVREWLVDT: E. tenella ARP with start codon moved to the 21th position (listed as Eimeria tenella) |  |  | DC-activity compared to full-length ARP ([1]; recombinant E. tenella ARP variants): activity was lost
17 | IL-1 β: interleukin | −^3 | − | 
18 | IFNγ: Interferon-gamma (protein, UniProt P01580 23-155, looked up) Interferon gamma: HGTVIESLESLNNYFNSSGIDVEEKSLFLDIWRNWQKDGDMKILQSQIISFYLRLFEVLKDNQAISNNISVIESHLITTFFSNSKAKKDAFMSIAKFEVNNPQVQRQAFNELIRVVHQLLPESSLRKRKRSRC |  | − | NK-CMC on direct addition (Mouse sarcoma 180 cells; added directly to NK/S180 co-cultures): slight increase; maximal response in the presence of IL-2 (Mouse sarcoma 180 cells; table footnote): ^6Weakly activates NK cells in the presence of IL-2 (maximal response <50% cytotoxicity).
19 | IL-2: Interleukin 2 (protein, UniProt P04351 21-169, looked up) Interleukin-2: APTSSSTSSSTAEAQQQQQQQQQQQQHLEQLLMDLQELLSRMENYRNLKLPRMLTFKFYLPKQATELKDLQCLEDELGPLRHVLDLTQSKSFQLEDAENFISNIRVTVVKLKGSDNTFECQFDDESATVVDFLRRWIAFCQSIISTSPQ |  | − | 
20 | KC: chemokine (protein, UniProt P12850 25-96, looked up) Growth-regulated alpha protein: APIANELRCQCLQTMAGIHLKNIQSLKVLPSGPHCTQTEVIATLKNGREACLDPEAPLVQKIVQKMLKGVPK | − |  | 
21 | IL-7: interleukin (protein, UniProt P10168 26-154, looked up) Interleukin-7: ECHIKDKEGKAYESVLMISIDELDKMTGTDSNCPNNEPNFFRKHVCDDTKEAAFLNRAARKLKQFLKMNISEEFNVHLLTVSQGTQTLVNCTSKEEKNVKEQKKNDACFLKRLLREIKTCWNKILKGSI | − |  | 
22 | MIP-1 α: chemokine (protein, UniProt P10147 24-92, looked up) C-C motif chemokine 3: SLAADTPTACCFSYTSRQIPQNFIADYFETSSQCSKPGVIFLTKRSRQVCADPSEEWVQKYVSDLELSA | − |  | 
23 | IL-4: interleukin (protein, UniProt P07750 21-140, looked up) Interleukin-4: HIHGCDKNHLREIIGILNEVTGEGTPCTEMDVPNVLTATKNTTESELVCRASKVLRIFYLKHGKTPCLKKNSSVLMELQRLFRAFRCLDSSISCTMNESKSTSLKDFLESLKSIMQMDYS | − |  | 
24 | IL-18: interleukin (protein, UniProt P70380 36-192, looked up) Interleukin-18: NFGRLHCTTAVIRNINDQVLFVDKRQPVFEDMTDIDQSASEPQTRLIIYMYKDSEVRGLAVTLSVKDSKMSTLSCKNKIISFEEMDPPENIDDIQSDLIFFQKRVPGHNKMEFESSLYEGHFLACQKEDDAFKLILKKKDENGDKSVMFTLTNLHQS |  | − | 
25 | IL-11: interleukin (protein, UniProt P20809 22-199, looked up) Interleukin-11: PGPPPGPPRVSPDPRAELDSTVLLTRSLLADTRQLAAQLRDKFPADGDHNLDSLPTLAMSAGALGALQLPGVLTRLRADLLSYLRHVQWLRRAGGSSLKTLEPELGTLQARLDRLLRRLQLLMSRLALPQPPPDPPAPPLAPPSSAWGGIRAAHAILGGLHLTLDWAVRGLLLLKTRL | − |  | 
